Here are results for twelve compounds from the supplement of paper PMC5579334.

For assay [1], the system named is HSC1. Nature of the assay: relative IC50 (inflection point of fitted dose-response curve, CellTox-Green cytotoxicity, 72 h; top asymptote may be below 50%); higher = less potent. In a few lines:
(§1)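 MPNST cell lines and primary human Schwann cells were incubated 72 h at 37 °C in 384-well plates holding five 10-fold compound dilutions. CellTox-Green was added before seeding at a final 1:1000 dilution and reported fluorescence from DNA released by disrupted cells. Signals were scaled to vehicle and positive-control wells, and cultures failing plate quality control were dropped. Drug sensitivity score and relative IC50 come from four-parameter logistic fits, with IC50 censored at the top concentration.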

Assay [2] has as its system HSC2. The description is as above. In a few lines:
as §1

The subject of assay [3] is HS-PSS. Described as above. The gist of the method: as §1
The subject of assay [4] is ST8814. Described as above. In a few lines: as §1
The test system of assay [5] is HSC1. Nature of the assay: relative IC50 (inflection point of fitted dose-response curve, CellTiter-Glo viability, 72 h; top asymptote may be below 50% inhibition); higher = less potent. The gist of the method: (§2)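 MPNST cell lines and primary human Schwann cells (750–1000 cells per well) went into 384-well plates preprinted with each compound at five concentrations in 10-fold steps. Plates were incubated 72 h at 37 °C, 5% CO2. Viability was read as CellTiter-Glo ATP luminescence, scaled between vehicle and positive-control wells, with duplicates averaged where present. Percent inhibition is at the top concentration; drug sensitivity score and relative IC50 (censored at top concentration) come from four-parameter logistic fits.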
(In general: Cellular ATP, detected with luciferase, serves as a proxy for viable cell number.)

For assay [6], the system named is HS-Sch-2. The assay is described as above. The gist of the method: as §2
In assay [7] the test system is HSC2. The description is as above. In a few lines:
as §2

Assay [8] has as its system YST-1. The description is as above. In a few lines: as §2
For assay [9], the system named is HS-PSS. The description is as above. The gist of the method:
as §2

Assay [10] relates to ST8814. The assay is described as above. The gist of the method: as §2
Assay [11] concerns STS26T. Nature of the assay: relative IC50 (inflection point of fitted dose-response curve, CellTox-Green cytotoxicity, 72 h; top asymptote may be below 50%); higher = less potent. The gist of the method:
as §1

The test system of assay [12] is STS26T. Nature of the assay: relative IC50 (inflection point of fitted dose-response curve, CellTiter-Glo viability, 72 h; top asymptote may be below 50% inhibition); higher = less potent. The gist of the method:
as §2

What is called relative IC50 is the concentration halfway between the upper and lower plateau of the fitted curve. As for `CN1CCC(COc2cnc(-c3cccc(Cn4nc(-c5cccc(C#N)c5)ccc4=O)c3)nc2)CC1`, the “relative IC50” value in assay [1], in [2], in assay [3], in assay [4], in assay [5] and in [6] was more than 1 µM in each case. Further, the “relative IC50” value in assay [7], in assay [8], in assay [9] and in [10] was more than 1 µM in each case.

For the compound `CC1(C)CCC(CN2CCN(c3ccc(C(=O)NS(=O)(=O)c4ccc(NCC5CCOCC5)c([N+](=O)[O-])c4)c(Oc4cnc5[nH]ccc5c4)c3)CC2)=C(c2ccc(Cl)cc2)C1` [ABT-199], the “relative IC50” value in assay [1], in [2], in [11] and in assay [12] was more than 10 µM in each case.

Regarding `Cc1cc(Nc2nc(N[C@@H](C)c3ncc(F)cn3)ncc2Cl)[nH]n1` [AZD1480], the “relative IC50” value is more than 1 µM in assay [1]; more than 1 µM in assay [3]; more than 1 µM in assay [4]; 0.193 µM in assay [5]; more than 1 µM in assay [6].

With `COc1cc(CCc2cc(NC(=O)c3ccc(N4CC(C)NC(C)C4)cc3)n[nH]2)cc(OC)c1` (centres undefined) [AZD4547], the “relative IC50” value in assay [1] was more than 1 µM; in [2], more than 1 µM; in [3], more than 1 µM; in assay [4], more than 1 µM; in assay [11], more than 1 µM; in assay [6], 0.253 µM. The “relative IC50” value in assay [8], in assay [9], in assay [10] and in assay [12] was more than 1 µM in each case.

`C[C@]12CC[C@H](O)CC1=CC[C@@H]1[C@@H]2CC[C@]2(C)C(c3cccnc3)=CC[C@@H]12` [Abiraterone]: the “relative IC50” value in [1], in assay [2], in assay [3], in assay [4], in [11] and in assay [6] was more than 5 µM throughout. The “relative IC50” value in assay [8], in [9] and in [10] was more than 5 µM throughout.

`CCC/C=C/C=C/C(=O)O[C@H]1/C(=C/C(=O)OC)C[C@H]2C[C@H]([C@@H](C)O)OC(=O)C[C@H](O)C[C@@H]3C[C@H](OC(C)=O)C(C)(C)[C@](O)(C[C@@H]4C/C(=C/C(=O)OC)C[C@H](/C=C/C(C)(C)[C@]1(O)O2)O4)O3` [Bryostatin 1]: the “relative IC50” value in assay [1], in [2], in assay [3], in assay [4], in assay [11] and in assay [5] was more than 0.1 µM in each case. Besides, the “relative IC50” value in [6] is 0.00041 µM; in assay [7] it was more than 0.1 µM; in assay [8] it was more than 0.1 µM; in [10] it was more than 0.1 µM.

In the case of `CC1=NN(c2ccc(C(=O)O)cc2)C(=O)C1=Cc1ccc(-c2cc(C)c(C)cc2[N+](=O)[O-])o1` [C646], the “relative IC50” value in assay [1] is more than 25 µM; in assay [2], 9.18 µM; in [3], more than 25 µM; in [4] it was more than 25 µM; in [11], more than 25 µM; in assay [5], more than 25 µM. In addition, the “relative IC50” value in assay [6], in assay [7], in [10] and in assay [12] was more than 25 µM each time.

For `Nc1nc(Cl)nc2c1ncn2[C@H]1C[C@H](O)[C@@H](CO)O1` [Cladribine], the “relative IC50” value amounted to 0.35 µM in [1]; 0.319 µM in assay [2]; 0.151 µM in [5]; 0.351 µM in [6]; 0.174 µM in assay [7]; 0.321 µM in [8]. Further, the “relative IC50” value amounted to 0.366 µM in [9] and 0.226 µM in [12].

Turning to `C[C@@H](Oc1cc(-c2cnn(C3CCNCC3)c2)cnc1N)c1c(Cl)ccc(F)c1Cl` [Crizotinib], the “relative IC50” value in assay [1] was more than 1 µM; in [2], more than 1 µM; in assay [3], more than 1 µM; in assay [4], more than 1 µM; in [11], more than 1 µM; in assay [8] it was 0.393 µM. Moreover, the “relative IC50” value was 0.367 µM in assay [9], more than 1 µM in assay [10] and more than 1 µM in [12].

For `COc1cc2ncnc(Nc3ccc(F)c(Cl)c3)c2cc1NC(=O)/C=C/CN1CCCCC1` [Dacomitinib], the “relative IC50” value is more than 1 µM in assay [1]; more than 1 µM in assay [2]; more than 1 µM in [4]; more than 1 µM in assay [11]; 0.148 µM in assay [6]; more than 1 µM in assay [8]. Moreover, in [9], the “relative IC50” value is 0.144 µM.

Take `COCC1(CO)C(=O)C2CCN1CC2` (centres undefined) [Prima-1 Met]: the “relative IC50” value was more than 10 µM in assay [1]; more than 10 µM in assay [2]; more than 10 µM in assay [4]; more than 10 µM in [11]; 0.572 µM in [5]; 2.14 µM in assay [7]. Further, the “relative IC50” value in [10] is more than 10 µM.

As for `CCN(CC)CCNC(=O)c1c(C)[nH]c(/C=C2\C(=O)Nc3ccc(F)cc32)c1C` [Sunitinib], the “relative IC50” value in assay [1], in assay [2], in assay [3], in assay [4], in assay [11] and in [5] was more than 1 µM throughout. Moreover, the “relative IC50” value in assay [6], in [7], in assay [8] and in assay [12] was more than 1 µM in each case.
